Assay results published in patent publication US20100093811A1 (priority 2007, published 2010).
Like-named read-outs stand apart in the source and are kept apart here.

Legend:
wild-type HIV-1 protease = wild-type HIV-1 protease (Human immunodeficiency virus type 1 group M subtype B, UniProt P04585); assay: Assay for inhibition of microbial expressed HIV protease; type: biochemical
How it was run: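 Inhibition taken from HPLC (C18) product peak areas after phosphoric acid quench. Reaction: 440 micromolar Val-Ser-Gln-Asn-(betanapthyl)Ala-Pro-Ile-Val peptide, 5 pM E. coli-made protease, 1 h at 30° C, following 30 min room-temperature inhibitor preincubation in pH 5.5 acetate/NaCl/BSA buffer.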

[1] = test system: acute HIV infection of T-lymphoid cells; assay: Assay for inhibition of HIV replication (spread assay); type: cell-based, HIV-1
Experimental: • Assay for Inhibition of HIV Replication
Assays for the inhibition of acute HIV infection of T-lymphoid cells were conducted in accordance with Vacca, J. P. et al., Proc. Natl. Acad. Sci. USA 1994, 91: 4096.

[2] = wild-type HIV-1 protease expressed in E. coli, peptide substrate, pH 5.5, read-out: Enzyme Inhibition - IC50
[3] = Human immunodeficiency virus 1, T-lymphoid, read-out: Spread - IC95

Compound | IC50 (wild-type HIV-1 protease; [2]) [nM] | IC95 [1, 3] [nM] | IC95 ([1]; Human immunodeficiency virus 1, T-lymphoid, read-out: Spread - IC95 (nM)) [nM] | IC50 (wild-type HIV-1 protease) [nM] | IC95 ([1]; inhibition of HIV-1 replication, 10% FBS, read-out: Spread - IC95) [nM]
CC[C@@H](CCC[C@@H](CO)N(C(C)C)S(=O)(=O)c1ccc(N)cc1)NC(=O)[C@@H](NC(=O)OC)C(c1ccccc1)c1ccccc1 [Example G18, N-{(1S,5S)-5-[[(4-aminophenyl)sulfonyl](isopropyl)amino]-1-ethyl-6-hydroxyhexyl}-Nα-(methoxycarbonyl)-β-phenyl-L-phenylalaninamide] | 0.755 | 199 | – | – | –
CC[C@@H](CCC[C@@H](CO)N(C(C)C)S(=O)(=O)c1ccc(CO)cc1)NC(=O)[C@@H](NC(=O)OC)C(c1ccccc1)c1ccccc1 [Example G19, N-{(1S,5S)-1-ethyl-6-hydroxy-5-[{[4-(hydroxymethyl)phenyl]sulfonyl}(isopropyl)amino]hexyl}-Nα-(methoxycarbonyl)-β-phenyl-L-phenylalaninamide] | 0.076 | 43 | – | – | –
CCCN([C@H](CO)CCC[C@@H](NC(=O)[C@@H](NC(=O)OC)C(c1ccccc1)c1ccccc1)C(F)(F)F)S(=O)(=O)c1ccc(N)cc1 [Example H1, N-[(1R,5S)-5-[[(4-aminophenyl)sulfonyl](propyl)amino]-6-hydroxy-1-(trifluoromethyl)hexyl]-Nα-(methoxycarbonyl)-β-phenyl-L-phenylalaninamide] | 0.022 | – | 14 | – | –
COC(=O)N[C@H](C(=O)N[C@H](CCC[C@@H](CO)N(CCC(C)C)S(=O)(=O)c1ccc(N)cc1)C(F)(F)F)C(c1ccccc1)c1ccccc1 [Example H2, N-[(1R,5S)-5-[[(4-aminophenyl)sulfonyl](3-methylbutyl)amino]-6-hydroxy-1-(trifluoromethyl)hexyl]-Nα-(methoxycarbonyl)-β-phenyl-L-phenylalaninamide] | – | 4 | – | 0.01 | –
COC(=O)N[C@H](C(=O)N[C@H](CCC[C@@H](CO)N(C(C)C)S(=O)(=O)c1ccc(N)cc1)C(F)(F)F)C(c1ccccc1)c1ccccc1 [Example H3, N-[(1R,55)-5-[[(4-aminophenyl)sulfonyl](isopropyl)amino]-6-hydroxy-1-(trifluoromethyl)hexyl]-Nα-(methoxycarbonyl)-β-phenyl-L-phenylalaninamide] | 0.076 | – | – | – | 18
CCN([C@H](CO)CCC[C@@H](NC(=O)[C@@H](NC(=O)OC)C(c1ccccc1)c1ccccc1)C(F)(F)F)S(=O)(=O)c1ccc(N)cc1 [Example H4, N-[(1R,5S)-5-[[(4-aminophenyl)sulfonyl](ethyl)amino]-6-hydroxy-1-(trifluoromethyl)hexyl]-Nα-(methoxycarbonyl)-β-phenyl-L-phenylalaninamide] | – | 29 | – | 0.173 | –
COC(=O)N[C@H](C(=O)N[C@H](CCC[C@@H](CO)N(CC(C)C)S(=O)(=O)c1ccc(N)cc1)C(F)(F)F)C(c1ccccc1)c1ccccc1 [Example H5, N-[(1R,5S)-5-[[(4-aminophenyl)sulfonyl](isobutyl)amino]-6-hydroxy-1-(trifluoromethyl)hexyl]-Nα-(methoxycarbonyl)-β-phenyl-L-phenylalaninamide] | – | 7 | – | 0.02 | –
COC(=O)N[C@H](C(=O)N[C@H](CCC[C@@H](CO)N(C)S(=O)(=O)c1ccc(N)cc1)C(F)(F)F)C(c1ccccc1)c1ccccc1 [Example H6, N-[(1R,5S)-5-[[(4-aminophenyl)sulfonyl](methyl)amino]-6-hydroxy-1-(trifluoromethyl)hexyl]-Nα-(methoxycarbonyl)-β-phenyl-L-phenylalaninamide] | – | 138 | – | 1.01 | –
COC(=O)N[C@@H](Cc1ccccc1Cl)C(=O)N[C@H](CCC[C@@H](CO)N(CC(C)C)S(=O)(=O)c1ccc(CO)cc1)C1CC1 [Example I1, 2-chloro-N-{(1R,5S)-1-cyclopropyl-6-hydroxy-5-[{[4-(hydroxymethyl)phenyl]sulfonyl}-(isobutyl)amino]hexyl}-Nα-(methoxycarbonyl)-L-phenylalaninamide] | 0.634 | 155 | – | – | –
COC(=O)N[C@@H](Cc1ccccc1Cl)C(=O)N[C@H](CCC[C@@H](CO)N(C(C)C)S(=O)(=O)c1ccc(CO)cc1)C1CC1 [Example I2, 2-chloro-N-{(1R,5S)-1-cyclopropyl-6-hydroxy-5-[{[4-(hydroxymethyl)phenyl]sulfonyl}(isopropyl)amino]hexyl}-Nα-(methoxycarbonyl)-L-phenylalaninamide] | 2.25 | 422 | – | – | –
COC(=O)N[C@H](C(=O)N[C@H](CCC[C@@H](CO)N(C(C)C)S(=O)(=O)c1ccc(CO)cc1)C1CC1)C(c1ccccc1)c1ccccc1 [Example I3, N-{(1R,5S)-1-cyclopropyl-6-hydroxy-5-[{[4-(hydroxymethyl)phenyl]sulfonyl}(isopropyl)amino]hexyl}-Nα-(methoxycarbonyl)-β-phenyl-L-phenylalaninamide] | 0.134 | 50 | – | – | –
CCCN([C@H](CO)CCC[C@@H](NC(=O)[C@@H](NC(=O)OC)C(c1ccccc1)c1ccccc1)C1CC1)S(=O)(=O)c1ccc(CO)cc1 [Example I4, N-{(1R,5S)-1-cyclopropyl-6-hydroxy-5-[{[4-(hydroxymethyl)phenyl]sulfonyl}(propyl)amino]hexyl}-Nα-(methoxycarbonyl)-β-phenyl-L-phenylalaninamide] | 0.058 | 29 | – | – | –
CCN([C@H](CO)CCC[C@@H](NC(=O)[C@@H](NC(=O)OC)C(c1ccccc1)c1ccccc1)C1CC1)S(=O)(=O)c1ccc(CO)cc1 [Example I5, N-[(1R,5S)-1-cyclopropyl-5-(ethyl{[4-(hydroxymethyl)phenyl]sulfonyl}amino)-6-hydroxyhexyl]-Nα-(methoxycarbonyl)-β-phenyl-L-phenylalaninamide] | 0.011 | 85 | – | – | –
COC(=O)N[C@H](C(=O)N[C@H](CCC[C@@H](CO)N(C)S(=O)(=O)c1ccc(CO)cc1)C1CC1)C(c1ccccc1)c1ccccc1 [Example I6, N-{(1R,5S)-1-cyclopropyl-6-hydroxy-5-[{[4-(hydroxymethyl)phenyl]sulfonyl}(methyl)amino]hexyl}-Nα-(methoxycarbonyl)-β-phenyl-L-phenylalaninamide] | 1.03 | 187 | – | – | –
CCCN([C@H](CO)CCC[C@@H](NC(=O)[C@@H](NC(=O)OC)C(c1ccccc1)c1ccccc1)C1CC1)S(=O)(=O)c1ccc(N)cc1 [Example I7, N-{(1R,5S)-5-[[(4-aminophenyl)sulfonyl](propyl)amino]-1-cyclopropyl-6-hydroxyhexyl}-Nα-(methoxycarbonyl)-β-phenyl-L-phenylalaninamide] | 0.206 | 43 | – | – | –
COC(=O)N[C@H](C(=O)N[C@H](CCC[C@@H](CO)N(C(C)C)S(=O)(=O)c1ccc(N)cc1)C1CC1)C(c1ccccc1)c1ccccc1 [Example I8, N-{(1R,5S)-5-[[(4-aminophenyl)sulfonyl](isopropyl)amino]-1-cyclopropyl-6-hydroxyhexyl}-Nα-(methoxycarbonyl)-β-phenyl-L-phenylalaninamide] | 0.346 | 43 | – | – | –
COC(=O)N[C@H](C(=O)N[C@H](CCC[C@@H](CO)N(C)S(=O)(=O)c1ccc(N)cc1)C1CC1)C(c1ccccc1)c1ccccc1 [Example I9, N-{(1R,5S)-5-[[(4-aminophenyl)sulfonyl](methyl)amino]-1-cyclopropyl-6-hydroxyhexyl}-Nα-(methoxycarbonyl)-β-phenyl-L-phenylalaninamide] | 3.2 | 323 | – | – | –
CCN([C@H](CO)CCC[C@@H](NC(=O)[C@@H](NC(=O)OC)C(c1ccccc1)c1ccccc1)C1CC1)S(=O)(=O)c1ccc(N)cc1 [Example I10, N-{(1R,5S)-5-[[(4-aminophenyl)sulfonyl](ethyl)amino]-1-cyclopropyl-6-hydroxyhexyl}-Nα-(methoxycarbonyl)-β-phenyl-L-phenylalaninamide] | 0.733 | 105 | – | – | –
CC[C@@H](CCC[C@@H](CO)N(CCC(C)C)S(=O)(=O)c1ccc(CO)cc1)NC(=O)[C@@H](NC(=O)OC)C(c1ccccc1)c1ccccc1 [Example J1, N-{(1S,5S)-1-ethyl-6-hydroxy-5-[{[4-(hydroxymethyl)phenyl]sulfonyl}(3-methylbutyl)amino]hexyl}-Nα-(methoxycarbonyl)-β-phenyl-L-phenylalaninamide] | 0.015 | 9 | – | – | –
COC(=O)N[C@H](C(=O)N[C@H](CCC[C@@H](CO)N(CCC(C)C)S(=O)(=O)c1ccc(CO)cc1)C(F)(F)F)C(c1ccccc1)c1ccccc1 [Example J2, N-[(1R,55S)-6-hydroxy-5-[{[4-(hydroxymethyl)phenyl]sulfonyl}(3-methylbutyl)amino]-1-(trifluoromethyl)hexyl]-Nα-(methoxycarbonyl)-β-phenyl-L-phenylalaninamide] | 0.012 | 8 | – | – | –
COC(=O)N[C@H](C(=O)N[C@H](CCC[C@@H](CO)N(CCC(C)C)S(=O)(=O)c1ccc([C@H](C)O)cc1)C1CC1)C(c1ccc(F)cc1)c1ccc(F)cc1 [Example J3, N-{(1R,5S)-1-cyclopropyl-6-hydroxy-5-[({4-[(1S)-1-hydroxyethyl]phenyl}sulfonyl)(3-methylbutyl)amino]hexyl}-4-fluoro-β-(4-fluorophenyl)-Nα-(methoxycarbonyl)-L-phenylalaninamide] | 0.011 | 25 | – | – | –
COC(=O)N[C@H](C(=O)N[C@@H](C)CCC[C@@H](CO)N(CCC(C)C)S(=O)(=O)c1ccc(CO)cc1)C(c1ccccc1)c1ccccc1 [Example J4, N-{(1S,5S)-6-hydroxy-5-[{[4-(hydroxymethyl)phenyl]sulfonyl}(3-methylbutyl)amino]-1-methylhexyl}-Nα-(methoxycarbonyl)-β-phenyl-L-phenylalaninamide] | 0.007 | 6 | – | – | –
